Assay type in all cases: functional, cell-based
Assay [1] deals with MCF7. Briefly: Cytotoxicity against human MCF7 cells assessed as reduction in cell viability <= 100 uM after 24 hrs by MTT assay. To be noted: dose microM <=100, time 24.0 hrs. In general terms: Formazan colour is commonly taken as a measure of viable cells.
Assay [2] deals with MCF7. The assay is described as follows: Cytotoxicity against human MCF7 cells assessed as reduction in cell viability at 100 nM after 24 hrs in presence of ER antagonist ICI 182,780 by MTT assay.
Assay [3] concerns MCF7. The assay is described as follows: Cytotoxicity against human MCF7 cells assessed as 17beta-estradiol-induced reduction in cell viability at 200 uM after 24 hrs by MTT assay.
Assay [4] relates to MCF7. Briefly: Cytotoxicity against human MCF7 cells assessed as 17beta-estradiol-induced reduction in cell viability at 100 uM after 24 hrs by MTT assay.

Active and inactive are the calls of the source. The calls are words filed in the database; no cut-off is given here.

In the case of `CC(C)[C@@H](C)/C=C/[C@@H](C)[C@H]1CC[C@@H]2[C@]1(C)CC=C1[C@]23C=C[C@]2(C[C@@H](O)CC[C@]12C)OO3`, the result in assay [1] and in assay [2] was Active.
As for `CC(C)[C@@H](C)/C=C/[C@@H](C)[C@H]1CCC(=O)[C@]23CC(=O)[C@@H]4CC(=O)CC[C@]4(C)[C@H]2CC[C@]13C`, the result in assay [1] and in assay [2] was Active.
Regarding `COC(=O)C[C@]12OC3=CC(=O)CC[C@]3(C)[C@H]1CC[C@]1(C)[C@@H]([C@H](C)/C=C/[C@H](C)C(C)C)CC[C@H]12`, the result in assay [1] and in assay [2] was Active.
With `CC(C)[C@@H](C)/C=C/[C@@H](C)[C@H]1CC[C@H]2[C@]3(O)C=CC4=CC(=O)CC[C@]4(C)[C@H]3CC[C@]12C`, the result in assay [1], in assay [3] and in assay [2] was Active.
As to `CC(C)[C@@H](C)/C=C/[C@@H](C)[C@H]1CC[C@@H]2[C@]1(C)CC[C@H]1[C@]23C=C[C@]2(C[C@@H](O)CC[C@]12C)OO3`, the outcome in assay [1], in assay [4] and in assay [2] was Active.

For the origin of these results see ChEMBL document CHEMBL4665818, “Calvatianone, a Sterol Possessing a 6/5/6/5-Fused Ring System with a Contracted Tetrahydrofuran B-Ring, from the Fruiting Bodies of Calvatia nipponica” (J Nat Prod, 2020).
